Data on 14 molecules can be found in US20230023559A1, “ARYLMETHYLENE HETEROCYCLIC COMPOUNDS AS KV1.3 POTASSIUM SHAKER CHANNEL BLOCKERS” (D. E. Shaw Research, LLC, priority 2019, published 2023).

Usually IC50 stands for the concentration needed to halve the response being measured.

This assay deals with T1, Kv1.3 potassium channel (Homo sapiens, UniProt P22001).
T1 construct: expressed in transfected cells
T1 sequence (P22001 whole entry): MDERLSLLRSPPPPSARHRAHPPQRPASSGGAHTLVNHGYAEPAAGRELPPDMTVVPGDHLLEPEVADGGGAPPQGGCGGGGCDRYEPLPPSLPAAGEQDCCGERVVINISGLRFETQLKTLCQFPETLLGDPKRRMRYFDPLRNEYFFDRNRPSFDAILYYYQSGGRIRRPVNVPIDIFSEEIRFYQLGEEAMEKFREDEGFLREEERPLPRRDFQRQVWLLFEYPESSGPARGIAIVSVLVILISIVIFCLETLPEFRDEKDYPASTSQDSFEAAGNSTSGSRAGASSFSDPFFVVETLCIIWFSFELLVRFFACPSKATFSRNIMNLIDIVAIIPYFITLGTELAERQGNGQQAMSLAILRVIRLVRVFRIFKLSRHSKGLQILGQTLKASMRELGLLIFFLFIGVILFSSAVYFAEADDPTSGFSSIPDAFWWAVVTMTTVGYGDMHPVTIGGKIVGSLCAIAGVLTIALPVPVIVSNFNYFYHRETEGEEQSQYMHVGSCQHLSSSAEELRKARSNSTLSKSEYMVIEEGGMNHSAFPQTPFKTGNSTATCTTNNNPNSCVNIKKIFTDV
Put plainly: Kv1.3 potassium channel blocker activity, automated whole-cell patch clamp (Patchliner). The format is cell-based. Particulars: CHO-K1 cells stably expressing Kv1.3; whole cell current inhibition; read-out: Kv1.3_IC50. The procedure:
The assay described below is used to evaluate the disclosed compound's activities as Kv1.3 potassium channel blockers.
CHO-K1 cells stably expressing Kv1.3 were grown in DMEM containing 10% heat-inactivated FBS, 1 mM Sodium Pyruvate, 2 mM L-Glutamine and G418 (500 μg/ml).
All compounds were dissolved in DMSO at 30 mM.
The currents were evoked by applying 100 ms depolarizing pulses from −90 mV (holding potential) to +40 mV were applied with 0.1 Hz frequency. […] 10 second breaks were used between pulse trains (see Table A below).
Data were sampled at 10 kHz without filtering. Passive leak currents were subtracted online using a P/4 procedure (HEKA Elektronik Dr. Schulze GmbH). […] Total compound incubation time before the next pulse train was not longer than 10 seconds. Peak current inhibition was observed during compound equilibration.
For orientation: In patch-clamp work, channel activity is measured electrically.
Consider `NC(c1cc(Cl)c(Cl)cc1O)C1CCN(C2CCNC2=O)CC1` (centres unmarked) [Compound 65, 3-(4-(amino(4,5-dichloro-2-hydroxyphenyl)methyl)piperidin-1-yl)pyrrolidin-2-one Trifluoroacetic Acid], for which the IC50 was below 10 µM.
On to `COCCN1CCC(C(N)c2cc(Cl)c(Cl)cc2O)CC1` (centres unmarked) [Compound 64, 2-(amino(1-(2-methoxyethyl)piperidin-4-yl)methyl)-4,5-dichlorophenol], for which the IC50 was below 10 µM.
The same measure for `CC(C)c1cc(O)c([C@H](N)C2CCN(C(=O)[C@H](O)CO)CC2)cc1Cl` [Compound 282, (2R)-1-(4-((R)-amino(5-chloro-2-hydroxy-4-isopropylphenyl)methyl)piperidin-1-yl)-2,3-dihydroxypropan-1-one]: below 30 µM; for `Cc1cc(CN2CCC(C(N)c3cc(Cl)c(Cl)cc3O)CC2)no1` (centres unmarked) [Compound 58, 2-[amino([1-[(5-methyl-1,2-oxazol-3-yl)methyl]piperidin-4-yl])methyl]-4,5-dichlorophenol Trifluoroacetic Acid]: below 10 µM.
The same measure for `CN(C)C(c1cc(Cl)c(Cl)cc1O)C1CCN(C(=O)[C@H](O)CO)CC1` (stereo partly drawn) [Compound 193, (2R)-1-[4-[(4,5-dichloro-2-hydroxyphenyl)(dimethylamino)methyl]piperidin-1-yl]-2,3-dihydroxypropan-1-one Trifluoroacetic Acid]: below 30 µM.
The same measure for `O=C([C@H]1CCNC1)N1CCC[C@H]([C@H](O)c2c(O)ccc(Cl)c2Cl)CC1` (single isomer, unassigned; isomer 2) [Compound 129]: below 10 µM; for `O=C(NC(c1cc(Cl)c(Cl)cc1O)C1CCNCC1)C(F)(F)F` (centres unmarked) [Compound 22, N-((4,5-dichloro-2-hydroxyphenyl)(piperidin-4-yl)methyl)-2,2,2-trifluoroacetamide]: below 10 µM.
`N[C@H](c1cc(Cl)c(Cl)cc1O)C1C2CCC1CN(C(=O)[C@H](O)CO)C2` (stereo partly drawn) [Compound 314, (2R)-1-[8-[(S)-amino(4,5-dichloro-2-hydroxyphenyl)methyl]-3-azabicyclo[3.2.1]octan-3-yl]-2,3-dihydroxypropan-1-one Trifluoroacetic Acid]: the half-maximal inhibitory concentration (IC50) was below 30 µM.
The same measure for `O=C([C@H]1CCNC1)N1CCCC(C(O)c2cc(Cl)c(Cl)cc2O)CC1` (stereo partly drawn) [Compound 128, 4,5-dichloro-2-[hydroxy([1-[(3S)-pyrrolidine-3-carbonyl]azepan-4-yl])methyl]phenol]: below 10 µM; for `N[C@H](c1cc(Cl)c(Cl)cc1O)[C@@H]1CCN(C(=O)[C@H](O)CO)C1` [Compound 310, (2R)-1-[(3R)-3-[(S)-amino(4,5-dichloro-2-hydroxyphenyl)methyl]pyrrolidin-1-yl]-2,3-dihydroxypropan-1-one]: below 10 µM.
The same measure for `COc1cc(C(=O)N2CCC([C@@H](N)c3cc(Cl)c(C)cc3O)CC2)c[nH]c1=O` [Compound 251, 5-[4-[(R)-amino(5-chloro-2-hydroxy-4-methylphenyl)methyl]piperidine-1-carbonyl]-3-methoxy-1H-pyridin-2-one Trifluoroacetic Acid]: below 0.5 µM.
The same measure for `N[C@@H](c1cc(Cl)c(Cl)cc1O)C1C2CCC1CN(C(=O)[C@H](O)CO)C2` (stereo partly drawn) [Compound 313, (2R)-1-[8-[(R)-amino(4,5-dichloro-2-hydroxyphenyl)methyl]-3-azabicyclo[3.2.1]octan-3-yl]-2,3-dihydroxypropan-1-one Trifluoroacetic Acid]: below 10 µM; for `Cc1cc(O)c([C@H](N)C2CCN(C(=O)c3ccc4c(c3)NC(=O)CO4)CC2)cc1Cl` [Compound 269, 6-[4-[(R)-amino (5-chloro-2-hydroxy-4-methylphenyl)methyl]piperidine-1-carbonyl]-2,4-dihydro-1,4-benzoxazin-3-one]: below 10 µM.
Regarding `CC(=O)NC(c1cc(Cl)c(Cl)cc1O)C1CCN(C(=O)[C@@H]2CCNC2)CC1` (stereo partly drawn) [Compound 108, N-((4,5-dichloro-2-hydroxyphenyl)(1-((R)-pyrrolidine-3-carbonyl)piperidin-4-yl)methyl)acetamide Trifluoroacetic Acid], the IC50 was below 10 µM.
